The values that follow come from patent US8309552B2, “Immunomodulating heterocyclic compounds” (Medigene AG, priority 2003, dated 2012).

As a reminder, the inhibition is the change of the read-out against control, counted positive when it falls. The EC50 is the concentration at which the effect is half-maximal.

The subject of experiment [1] is production of Interleukin-2 (IL-2) by Human Jurkat T Cells. The experiment in a line: Inhibition of production of interleukin-2 (IL-2) by human Jurkat T cells (Raji/Jurkat co-culture, anti-CD3, IL-2 ELISA). To be noted: read-out: Percentage Inhibition (relative to DMSO = 0%); for inhibition at 30 µM: Compound Concentration 30 μM; for inhibition at 10 µM: Compound Concentration 10 μM. It counts as cell-based. Here is the method:
• Collins A V et al. (2002) Immunity 17, 201-210 “The interaction properties of costimulatory molecules revisited” Inhibition of Production of Interleukin-2 (IL-2) by Human Jurkat T Cells. Method
Human Raji cells were dispensed at a concentration of 2×10^5 cells per well in RPMI-1640 medium supplemented with 10% fetal calf serum, 1% penicillin/streptomycin, 1% glutamine (RPMI medium) in a 96-well round bottom microtitre plate. Compounds under investigation (dissolved in 100% DMSO) were diluted to eight-fold the desired final concentration in RPMI medium and added to the required final concentration for a total volume of 200 μl per well. After 20 minutes incubation at 37° C., Jurkat T cells were added at a concentration of 2×10^5 cells per well. Monoclonal antibody to CD3 (UCHT1, R&D Systems) was added to the cultures at a final concentration of 1 μg per ml, and where indicated, monoclonal antibody to CD28 (CD28.2, BD-Pharmingen) was also added at a concentration of 2.5 μg per ml. Cells were cultured at 37° C. for 5 hours, after which the plates were centrifuged and the supernatants harvested for IL-2 ELISA assay using the IL-2 Eli-pair kit (DIACLONE Research, Besancon, France) according to the manufacturers instructions.
In general terms: An ELISA detects its analyte on a solid surface through an enzyme-linked reagent.

Another experiment concerns the target T1, CD80-CD28 interaction (Homo sapiens, UniProt P33681).
T1 sequence (P33681 35-242 limits assumed): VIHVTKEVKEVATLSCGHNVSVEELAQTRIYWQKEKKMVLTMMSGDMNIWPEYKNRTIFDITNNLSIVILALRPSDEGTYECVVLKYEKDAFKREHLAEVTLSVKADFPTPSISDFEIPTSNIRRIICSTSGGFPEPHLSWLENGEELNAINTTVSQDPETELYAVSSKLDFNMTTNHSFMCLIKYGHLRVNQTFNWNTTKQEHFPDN
The experiment in a line: Homogenous Time Resolved Fluorescence (HTRF) assay, cell free. It counts as binding. Conditions: 4 hours at room temperature, read-out: Activity (EC50 in the HTRF assay). A digest of the protocol:
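Europium and APC labels were linked through antibodies to CD28 and CD80 fusion proteins. Compounds were tested at 100 μM-1.7 nM for 4 h at room temperature in 50 mM Tris-HCl, 150 mM NaCl pH7.8, 0.1% BSA. Emission read at 665 and 615 nm (excitation 340 nm); non-specific signal measured with C215 Fab in place of CD80; EC50 reported in bands.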

[2] abbreviates: cell-free HTRF, compound concentration series 100 μM-1.7 nM.
The mark [3] stands for this setting: cell free HTRF assay, concentration series 100 μM-1.7 nM.
[4] abbreviates: cell-free HTRF, concentration series 100 μM-1.7 nM.

Like-named read-outs stand apart in the source and are kept apart here. Bounds are passed on as bounds.

In the case of `CC(C)OCCCNC(=O)c1ccc(-n2[nH]c3c(nnc4ccccc43)c2=O)cc1` [Example 53], in experiment [1], the inhibition at 30 µM is 63.8%. For the same molecule, the EC50 on CD80-CD28 interaction (setting [2]) was under 1000 nM.
`CN1C(C)(C)CC(NC(=O)c2ccc(-n3[nH]c4c(nnc5ccccc54)c3=O)cc2)CC1(C)C` [Example 68]: the inhibition at 10 µM in experiment [1] came out at 71.7%. Besides, the EC50 at CD80-CD28 interaction (setting [2]) was under 1000 nM.
On to `CCN1CCCC1CNC(=O)Nc1ccc(-n2[nH]c3c(nnc4ccccc43)c2=O)cc1` (centres unmarked) [Example 162], for which, in experiment [1], the inhibition at 30 µM was determined as 54.4%. The EC50 at CD80-CD28 interaction (setting [2]) was under 1000 nM.
Turning to `O=C(NCCCNC1CCCCC1)c1ccc(-n2[nH]c3c(nnc4c(F)cccc43)c2=O)cc1` [Example 235], the inhibition at 10 µM in experiment [1] was determined as 59.3%. Besides, the EC50 at CD80-CD28 interaction (setting [3]) is under 1000 nM.
As for `CN1CCC(NC(=O)c2ccc(-n3[nH]c4c(nnc5c(F)cccc54)c3=O)cc2)CC1` [Example 349], in experiment [1], the inhibition at 10 µM is 79.5%. Further, at CD80-CD28 interaction (setting [3]), the EC50 is under 1000 nM.
Taken in the same sequence, the figures for `O=C(NCCCN1CCOCC1)c1ccc(-n2[nH]c3c(nnc4c(F)cccc43)c2=O)cc1` [Example 350] were 74.2% and under 1000 nM.
Take `O=C(NC1CN2CCC1CC2)c1ccc(-n2[nH]c3c(nnc4c(F)cccc43)c2=O)cc1` (centres unmarked) [Example 353]: in experiment [1], the inhibition at 10 µM is 77.4%. Further, the EC50 at CD80-CD28 interaction (setting [3]) was under 1000 nM.
Turning to `NC1CCCC(NC(=O)c2ccc(-n3[nH]c4c(nnc5c(F)cccc54)c3=O)cc2)C1` (centres unmarked) [Example 499], at CD80-CD28 interaction (setting [4]), the EC50 is under 1000 nM.
Regarding `O=C(NCC(F)F)c1ccc(-n2[nH]c3c(nnc4c(F)ccc(F)c43)c2=O)cc1` [Example 500], at CD80-CD28 interaction (setting [4]), the EC50 is under 1000 nM.
As to `O=C(N[C@H]1CC[C@H](O)CC1)c1ccc(-n2[nH]c3c(nnc4c(F)cccc43)c2=O)cc1` [Example 501], the EC50 at CD80-CD28 interaction (setting [4]) was under 1000 nM.
As for `CC(O)CCNC(=O)c1ccc(-n2[nH]c3c(nnc4c(F)cccc43)c2=O)cc1` (centres unmarked) [Example 502], the EC50 on CD80-CD28 interaction (setting [4]) is under 1000 nM.
For `O=C(NCC1CCCCCC1O)c1ccc(-n2[nH]c3c(nnc4c(F)cccc43)c2=O)cc1` (centres unmarked) [Example 503], the EC50 on CD80-CD28 interaction (setting [4]) lay within 1000 to 10000 nM.
As to `O=C(NCC1CCCCC1O)c1ccc(-n2[nH]c3c(nnc4c(F)cccc43)c2=O)cc1` (centres unmarked) [Example 504], the EC50 at CD80-CD28 interaction (setting [4]) fell in the range of 1000 to 10000 nM.
With `O=C(NCCNCCO)c1ccc(-n2[nH]c3c(nnc4c(F)cccc43)c2=O)cc1` [Example 505], the EC50 at CD80-CD28 interaction (setting [4]) was under 1000 nM.
The same measure, in the same setting: in the case of `O=C(NCC1CCCCCCC1O)c1ccc(-n2[nH]c3c(nnc4c(F)cccc43)c2=O)cc1` (centres unmarked) [Example 506] it was 1000 to 10000 nM.
`O=C(NC(CO)CO)c1ccc(-n2[nH]c3c(nnc4c(F)cccc43)c2=O)cc1` [Example 507]: the EC50 at CD80-CD28 interaction (setting [4]) was under 1000 nM.
On to `CC(CO)NC(=O)c1ccc(-n2[nH]c3c(nnc4c(F)cccc43)c2=O)cc1` (centres unmarked) [Example 508], for which the half-maximal effective concentration (EC50) at CD80-CD28 interaction (setting [4]) was under 1000 nM.
On to `CCC(CO)NC(=O)c1ccc(-n2[nH]c3c(nnc4c(F)cccc43)c2=O)cc1` (centres unmarked) [Example 509], for which the concentration giving a half-maximal response (EC50) on CD80-CD28 interaction (setting [4]) is under 1000 nM.
Turning to `O=C(N[C@H]1c2ccccc2C[C@H]1O)c1ccc(-n2[nH]c3c(nnc4c(F)cccc43)c2=O)cc1` [Example 510], the EC50 at CD80-CD28 interaction (setting [4]) lay within 1000 to 10000 nM.
Take `O=C(NC(CO)Cc1ccc(O)cc1)c1ccc(-n2[nH]c3c(nnc4c(F)cccc43)c2=O)cc1` (centres unmarked) [Example 511]: the EC50 on CD80-CD28 interaction (setting [4]) is 1000 to 10000 nM.
The same measure, in the same setting: in the case of `O=C(N[C@@H](CO)[C@@H](O)c1ccccc1)c1ccc(-n2[nH]c3c(nnc4c(F)cccc43)c2=O)cc1` [Example 513] it was 1000 to 10000 nM; in that of `O=C(NC(CO)Cc1ccccc1)c1ccc(-n2[nH]c3c(nnc4c(F)cccc43)c2=O)cc1` (centres unmarked) [Example 514], under 1000 nM; in that of `O=C(NC(CO)Cc1c[nH]c2ccccc12)c1ccc(-n2[nH]c3c(nnc4c(F)cccc43)c2=O)cc1` (centres unmarked) [Example 515], 1000 to 10000 nM.
On the same count and under the same terms, with `CC(C)(CO)NC(=O)c1ccc(-n2[nH]c3c(nnc4c(F)cccc43)c2=O)cc1` [Example 516] the figure was over 10000 nM; with `CC(CO)(CO)NC(=O)c1ccc(-n2[nH]c3c(nnc4c(F)cccc43)c2=O)cc1` [Example 517], under 1000 nM.
